Measurements published in PubChem BioAssay AID1259407 (Chemical Carcinogenesis Research Information System (CCRIS), 2018).
The source made the active and inactive calls. How the calls were made is not given here.

Test system: CCRIS mutagenicity, Ames/micronucleus/aberration tests
Test: CCRIS mutagenicity studies
[1] = Test System: AMES SALMONELLA TYPHIMURIUM, Strain/Indicator: TA100, Metabolic Activation: NONE, Method: PREINCUBATION

Compound: CN(C)C(=O)Oc1ccc[n+](C)c1
- mutagenic call (Test System: AMES SALMONELLA TYPHIMURIUM, Strain/Indicator: TA98, Metabolic Activation: HAMSTER, LIVER, S-9, AROCLOR 1254, Method: STANDARD PLATE): inactive; negative
- mutagenic call (Test System: AMES SALMONELLA TYPHIMURIUM, Strain/Indicator: TA98, Metabolic Activation: NONE, Method: STANDARD PLATE): inactive; negative
- mutagenic call (Test System: AMES SALMONELLA TYPHIMURIUM, Strain/Indicator: TA98, Metabolic Activation: RAT, LIVER, S-9, AROCLOR 1254, Method: STANDARD PLATE): inactive; negative
- mutagenic call (Test System: AMES SALMONELLA TYPHIMURIUM, Strain/Indicator: TA100, Metabolic Activation: HAMSTER, LIVER, S-9, AROCLOR 1254, Method: STANDARD PLATE): inactive; negative
- mutagenic call (Test System: AMES SALMONELLA TYPHIMURIUM, Strain/Indicator: TA100, Metabolic Activation: NONE, Method: STANDARD PLATE): inactive; negative
- mutagenic call (Test System: AMES SALMONELLA TYPHIMURIUM, Strain/Indicator: TA100, Metabolic Activation: RAT, LIVER, S-9, AROCLOR 1254, Method: STANDARD PLATE): inactive; negative
- mutagenic call (Test System: AMES SALMONELLA TYPHIMURIUM, Strain/Indicator: TA1535, Metabolic Activation: HAMSTER, LIVER, S-9, AROCLOR 1254, Method: STANDARD PLATE): inactive; negative
- mutagenic call (Test System: AMES SALMONELLA TYPHIMURIUM, Strain/Indicator: TA1535, Metabolic Activation: NONE, Method: STANDARD PLATE): inactive; negative
- mutagenic call (Test System: AMES SALMONELLA TYPHIMURIUM, Strain/Indicator: TA1535, Metabolic Activation: RAT, LIVER, S-9, AROCLOR 1254, Method: STANDARD PLATE): inactive; negative
- mutagenic call (Test System: AMES SALMONELLA TYPHIMURIUM, Strain/Indicator: TA1537, Metabolic Activation: HAMSTER, LIVER, S-9, AROCLOR 1254, Method: STANDARD PLATE): inactive; negative
- mutagenic call (Test System: AMES SALMONELLA TYPHIMURIUM, Strain/Indicator: TA1537, Metabolic Activation: NONE, Method: STANDARD PLATE): inactive; negative
- mutagenic call (Test System: AMES SALMONELLA TYPHIMURIUM, Strain/Indicator: TA1537, Metabolic Activation: RAT, LIVER, S-9, AROCLOR 1254, Method: STANDARD PLATE): inactive; negative
- mutagenic call (Test System: AMES SALMONELLA TYPHIMURIUM, Strain/Indicator: TA1538, Metabolic Activation: HAMSTER, LIVER, S-9, AROCLOR 1254, Method: STANDARD PLATE): inactive; negative
- mutagenic call (Test System: AMES SALMONELLA TYPHIMURIUM, Strain/Indicator: TA1538, Metabolic Activation: NONE, Method: STANDARD PLATE): inactive; negative
- mutagenic call (Test System: AMES SALMONELLA TYPHIMURIUM, Strain/Indicator: TA1538, Metabolic Activation: RAT, LIVER, S-9, AROCLOR 1254, Method: STANDARD PLATE): inactive; negative
- mutagenic call (Test System: MOUSE LYMPHOMA, Strain/Indicator: L5178Y (TK+/TK-), Metabolic Activation: NONE, Method: SUSPENSION/PLATE): inactive; negative. reevaluation of results: negative
- mutagenic call (Test System: MOUSE LYMPHOMA, Strain/Indicator: L5178Y (TK+/TK-), Metabolic Activation: RAT, LIVER, S-9, AROCLOR 1254, Method: SUSPENSION/PLATE): active; positive. reevaluation of results: equivocal

Compound: O=[N+]([O-])c1ccc(Nc2ncnc3c2ncn3-c2ccc([N+](=O)[O-])cc2)cc1
- mutagenic call (Test System: AMES SALMONELLA TYPHIMURIUM, Strain/Indicator: TA98(1,8-DNP), Metabolic Activation: NONE, Method: PREINCUBATION): inactive; negative
- mutagenic call (Test System: AMES SALMONELLA TYPHIMURIUM, Strain/Indicator: TA98(1,8-DNP), Metabolic Activation: RAT, LIVER, S-9, PCB, Method: PREINCUBATION): inactive; negative
- mutagenic call (Test System: AMES SALMONELLA TYPHIMURIUM, Strain/Indicator: TA98(NR), Metabolic Activation: NONE, Method: PREINCUBATION): inactive; negative
- mutagenic call (Test System: AMES SALMONELLA TYPHIMURIUM, Strain/Indicator: TA98(NR), Metabolic Activation: RAT, LIVER, S-9, PCB, Method: PREINCUBATION): inactive; negative
- mutagenic call (Test System: AMES SALMONELLA TYPHIMURIUM, Strain/Indicator: TA98, Metabolic Activation: NONE, Method: PREINCUBATION): inactive; negative
- mutagenic call (Test System: AMES SALMONELLA TYPHIMURIUM, Strain/Indicator: TA98, Metabolic Activation: RAT, LIVER, S-9, PCB, Method: PREINCUBATION): inactive; negative
- mutagenic call (Test System: AMES SALMONELLA TYPHIMURIUM, Strain/Indicator: TA100(1,8-DNP), Metabolic Activation: NONE, Method: PREINCUBATION): inactive; negative
- mutagenic call (Test System: AMES SALMONELLA TYPHIMURIUM, Strain/Indicator: TA100(1,8-DNP), Metabolic Activation: RAT, LIVER, S-9, PCB, Method: PREINCUBATION): inactive; negative
- mutagenic call (Test System: AMES SALMONELLA TYPHIMURIUM, Strain/Indicator: TA100(NR), Metabolic Activation: NONE, Method: PREINCUBATION): inactive; negative
- mutagenic call (Test System: AMES SALMONELLA TYPHIMURIUM, Strain/Indicator: TA100(NR), Metabolic Activation: RAT, LIVER, S-9, PCB, Method: PREINCUBATION): inactive; negative
- mutagenic call [1]: inactive; negative
- mutagenic call (Test System: AMES SALMONELLA TYPHIMURIUM, Strain/Indicator: TA100, Metabolic Activation: RAT, LIVER, S-9, PCB, Method: PREINCUBATION): inactive; negative
- mutagenic call (Test System: AMES SALMONELLA TYPHIMURIUM, Strain/Indicator: YG1020, Metabolic Activation: NONE, Method: PREINCUBATION): inactive; negative
- mutagenic call (Test System: AMES SALMONELLA TYPHIMURIUM, Strain/Indicator: YG1020, Metabolic Activation: RAT, LIVER, S-9, PCB, Method: PREINCUBATION): inactive; negative
- mutagenic call (Test System: AMES SALMONELLA TYPHIMURIUM, Strain/Indicator: YG1021, Metabolic Activation: RAT, LIVER, S-9, PCB, Method: PREINCUBATION): active; positive
- mutagenic call (Test System: AMES SALMONELLA TYPHIMURIUM, Strain/Indicator: YG1024, Metabolic Activation: RAT, LIVER, S-9, PCB, Method: PREINCUBATION): inactive; negative
- mutagenic call (Test System: AMES SALMONELLA TYPHIMURIUM, Strain/Indicator: YG1025, Metabolic Activation: NONE, Method: PREINCUBATION): inactive; negative
- mutagenic call (Test System: AMES SALMONELLA TYPHIMURIUM, Strain/Indicator: YG1025, Metabolic Activation: RAT, LIVER, S-9, PCB, Method: PREINCUBATION): inactive; negative
- mutagenic call (Test System: AMES SALMONELLA TYPHIMURIUM, Strain/Indicator: YG1026, Metabolic Activation: NONE, Method: PREINCUBATION): inactive; negative
- mutagenic call (Test System: AMES SALMONELLA TYPHIMURIUM, Strain/Indicator: YG1026, Metabolic Activation: RAT, LIVER, S-9, PCB, Method: PREINCUBATION): inactive; negative
- mutagenic call (Test System: AMES SALMONELLA TYPHIMURIUM, Strain/Indicator: YG1029, Metabolic Activation: NONE, Method: PREINCUBATION): inactive; negative
- mutagenic call (Test System: AMES SALMONELLA TYPHIMURIUM, Strain/Indicator: YG1029, Metabolic Activation: RAT, LIVER, S-9, PCB, Method: PREINCUBATION): inactive; negative

Compound: C/C=C(\Cl)C=O
- mutagenic call [1]: active; positive
- mutagenic call (Test System: AMES SALMONELLA TYPHIMURIUM, Strain/Indicator: TA100, Metabolic Activation: NONE, Method: PREINCUBATION, LIQUID INCUBATION): active; positive

Compound: C#CCO
- mutagenic call (End Point: In vivo micronucleus, Test System: Normochromatic erythrocytes, Species: Mouse, Strain/Sex: B6C3F1/Male): inactive; negative
- mutagenic call (End Point: In vivo micronucleus, Test System: Normochromatic erythrocytes, Species: Mouse, Strain/Sex: B6C3F1/female): inactive; negative. in females, statistically significant trend test but no individual gro
- mutagenic call (Test System: AMES SALMONELLA TYPHIMURIUM, Strain/Indicator: TA97, Metabolic Activation: NONE): inactive; negative
- mutagenic call (Test System: AMES SALMONELLA TYPHIMURIUM, Strain/Indicator: TA97, Metabolic Activation: RAT, LIVER, S-9, AROCLOR 1254): inactive; negative
- mutagenic call (Test System: AMES SALMONELLA TYPHIMURIUM, Strain/Indicator: TA98, Metabolic Activation: NONE): inactive; negative
- mutagenic call (Test System: AMES SALMONELLA TYPHIMURIUM, Strain/Indicator: TA98, Metabolic Activation: RAT, LIVER, S-9, AROCLOR 1254): inactive; negative
- mutagenic call (Test System: AMES SALMONELLA TYPHIMURIUM, Strain/Indicator: TA100, Metabolic Activation: NONE): inactive; negative
- mutagenic call (Test System: AMES SALMONELLA TYPHIMURIUM, Strain/Indicator: TA100, Metabolic Activation: RAT, LIVER, S-9, AROCLOR 1254): inactive; negative
- mutagenic call (Test System: AMES SALMONELLA TYPHIMURIUM, Strain/Indicator: TA102, Metabolic Activation: NONE): inactive; negative
- mutagenic call (Test System: AMES SALMONELLA TYPHIMURIUM, Strain/Indicator: TA102, Metabolic Activation: RAT, LIVER, S-9, AROCLOR 1254): inactive; negative
- mutagenic call (Test System: Ames Salmonella typhimurium, Strain/Indicator: TA98, Metabolic Activation: Hamster, Liver, S9, Aroclor 1254 (30%), Method: Preincubation): inactive; negative. authors judged results as equivocal.
- mutagenic call (Test System: Ames Salmonella typhimurium, Strain/Indicator: TA98, Metabolic Activation: Rat, Liver, S9, Aroclor 1254 (30%), Method: Preincubation): inactive; negative. precipitate at highest dose.
- mutagenic call (Test System: Ames Salmonella typhimurium, Strain/Indicator: TA100, Metabolic Activation: Hamster, Liver, S9, Aroclor 1254 (30%), Method: Preincubation): inactive; negative
- mutagenic call (Test System: Ames Salmonella typhimurium, Strain/Indicator: TA100, Metabolic Activation: Rat, Liver, S9, Aroclor 1254 (30%), Method: Preincubation): inactive; negative
- mutagenic call (Test System: Ames Salmonella typhimurium, Strain/Indicator: TA1535, Metabolic Activation: None, Method: Preincubation): inactive; negative
